Data from publication PMC6278284, “Synthesis of Jacaranone-Derived Nitrogenous Cyclohexadienones and Their Antiproliferative and Antiprotozoal Activities” (Molecules, 2018).
Read-outs that look alike come from different tables or passages of the source.

Columns and labels:
[1] = test system: P. falciparum, strain NF54, erythrocytic stages; experiment: In vitro growth inhibition assay of Plasmodium falciparum NF54 ([3H]-hypoxanthine incorporation); type: cell-based; settings: for IC50: Plasmodium falciparum; for SI (IC50 in L6 cells/IC50 P. falciparum): ratio IC50 L6 / IC50 P. falciparum NF54
Experimental: In vitro activity against erythrocytic stages of P. falciparum was determined by a modified [^3H]-hypoxanthine incorporation assay using the drug-sensitive NF54 strain and the standard drug, chloroquine (Sigma C6628). Briefly, parasite cultures incubated in RPMI 1640 medium with 5% AlbuMAX^TM (without hypoxanthine) were exposed to serial drug dilutions in microtiter plates. After 48 h of incubation at 37 °C in a reduced oxygen atmosphere, 0.5 μCi [^3H]-hypoxanthine was added to each well of the plate. Cultures were incubated for a further 24 h before they were harvested onto glass-fiber filters and washed with distilled water. The radioactivity was counted using a Betaplate^TM liquid scintillation counter (Wallac, Zurich). The results were recorded as counts per minute (CPM) per well at each drug concentration and expressed as a percentage of the untreated controls. IC50 values were calculated from the sigmoidal inhibition curves using Microsoft Excel.

[2] = test system: MRC-5 non-tumorigenic lung fibroblasts; experiment: XTT viability assay, MRC-5; type: cell-based, human; settings: Homo sapiens, MRC5, read-out: metabolic active cells in % of control; for viability at 5 µg/mL: MRC-5, 5 µg/mL; for viability at 5 µg/mL / viability at 50 µg/mL: 72 h; for viability at 50 µg/mL: MRC-5, 50 µg/mL
Experimental: (§1) Human CCRF-CEM leukemia and MDA-MB-231 breast cancer cells lines were kept in RPMI1640 medium (Gibco®, ThermoFisher Scientific Inc., New York, NY, USA), supplemented with 2 mM L-glutamine (Gibco®), 10% heat-inactivated foetal bovine serum (FBS, Gibco®), 100 units/mL Penicillin (PAA), and 100 µg/mL Streptomycin (Gibco®) (1% Pen/Strep). HCT-116 and U251 cells were cultured in high-glucose Dulbecco’s Modified Eagle Medium (DMEM, Gibco®) containing 2 mM L-glutamine, 10% FBS, and 1% Pen/Strep. MRC-5 cells were grown in Minimum Essential Medium (MEM, Gibco®) supplemented with 2 mM L-glutamine, 10% FBS, and 1% Pen/Strep. All cells were kept in a humidified 5% CO2 atmosphere at 37 °C and passaged at 90% confluence.
(§2) A Cell Proliferation Kit II (XTT) was purchased from Sigma-Aldrich and performed as described previously and in accordance with the manufacturer’s protocol. In brief, adherent cell lines were seeded at a density of 50,000 cells/mL or 100,000 cells/mL (MRC-5) in 96 well plates (100 µL, flat bottom) and grown for 24 h before test compounds were added. Suspension cells (CCRF-CEM) were seeded at 100,000 cells/mL and test compounds were added immediately. After 72 h, XTT solution was added for another 90 min or 4 h (CCRF-CEM cells) and absorbance was measured at 490 nm with a reference wave length of 650 nm (Hidex Sense Microplate Reader 425-301, Hidex, Turku, Finland). Results are expressed as a percentage of the vehicle-treated (0.5% DMSO) control cells. Vinblastine served as the positive control (0.01 µg/mL).

[3] = test system: HCT-116 colon cancer cells; experiment: XTT viability assay, HCT-116; type: cell-based; settings: Homo sapiens, read-out: metabolic active cells in % of control; for viability at 5 µg/mL: HCT 116, 5 µg/mL; for viability at 5 µg/mL / viability at 50 µg/mL: 72 h; for viability at 50 µg/mL: HCT 116, 50 µg/mL
Experimental: as §1, §2

[4] = test system: T. brucei rhodesiense, strain STIB900 trypomastigote forms; experiment: In vitro growth inhibition assay of Trypanosoma brucei rhodesiense (Alamar Blue); type: cell-based; settings: for IC50: Trypanosoma brucei, 72 h, read-out: T.b.rhod. IC50; for SI (IC50 in L6 cells/IC50 T. b. rhodesiense): ratio IC50 L6 / IC50 T. b. rhodesiense STIB900
Experimental: Trypanosoma brucei rhodesiense, STIB 900 strain, and the standard drug, melarsoprol, were used for the assay. Minimum Essential Medium (50 μL) supplemented with 25 mM HEPES, 1g/L additional glucose, 1% MEM non-essential amino acids (100×), 0.2 mM 2-mercaptoethanol, 1 mM Na-pyruvate, and 15% heat-inactivated horse serum was added to each well of a 96-well microtiter plate. Serial drug dilutions of 11 three-fold dilution steps covering a range from 100 to 0.002 μg/mL were prepared. Then, 4 × 10^3 bloodstream forms of T. b. rhodesiense (STIB 900) in 50 μL were added to each well and the plate was incubated at 37 °C under a 5% CO2 atmosphere for 72 h. 10 μL Alamar Blue (resazurin, 12.5 mg in 100 mL double-distilled water) was then added to each well and incubation continued for a further 2–4 h. Then, the plates were read with a Spectramax Gemini XS microplate fluorometer (Molecular Devices Cooperation, Sunnyvale, CA, USA) using an excitation wavelength of 536 nm and an emission wavelength of 588 nm. The IC50 values were calculated from the sigmoidal inhibition curves using the microplate reader software, Softmax Pro (Molecular Devices Cooperation, Sunnyvale, CA, USA). Melarsoprol was used as the control.

CCRF-CEM leukemia cells = experiment: XTT viability assay, CCRF-CEM; type: cell-based; settings: Homo sapiens, read-out: metabolic active cells in % of control; for viability at 5 µg/mL / viability at 50 µg/mL: 72 h
Experimental: as §1, §2

[5] = test system: L6 cells rat skeletal myoblasts; experiment: Cytotoxicity against L6 cells (Alamar Blue); type: cell-based; settings: read-out: Cyt. L6 IC50
Experimental: Assays were performed in 96-well microtiter plates, each well containing 100 μL of RPMI 1640 medium supplemented with 1% L-glutamine (200 mM) and 10% foetal bovine serum, and 4000 L6 cells (a […] cell line derived from rat skeletal myoblasts). Serial drug dilutions of 11 threefold dilution steps covering a range from 100 to 0.002 μg/mL were prepared. After 72 h of incubation, the plates were inspected under an inverted microscope to assure growth of the controls and sterile conditions. 10 μL of Alamar Blue solution was then added to each well and the plates incubated for another 2 h. Then, the plates were read with a Spectramax Gemini XS microplate fluorometer (Molecular Devices Cooperation, Sunnyvale, CA, USA) using an excitation wavelength of 536 nm and an emission wavelength of 588 nm. The IC50 values were calculated by linear regression from the sigmoidal dose inhibition curves using the microplate reader software, Softmax Pro (Molecular Devices Cooperation, Sunnyvale, CA, USA). Podophyllotoxin (Sigma P4405) was used as the control.

[6] = test system: MDA-MB-231 breast cancer cells; experiment: XTT viability assay, MDA-MB-231; type: cell-based; settings: Homo sapiens, read-out: metabolic active cells in % of control; for viability at 5 µg/mL: MDA-MB-231, 5 µg/mL; for viability at 5 µg/mL / viability at 50 µg/mL: 72 h; for viability at 50 µg/mL: MDA-MB-231, 50 µg/mL
Experimental: as §1, §2

U251 glioblastoma cells = experiment: XTT viability assay, U251; type: cell-based; settings: Homo sapiens, U-251, read-out: metabolic active cells in % of control; for viability at 5 µg/mL: U251, 5 µg/mL; for viability at 5 µg/mL / viability at 50 µg/mL: 72 h; for viability at 50 µg/mL: U251, 50 µg/mL
Experimental: as §1, §2

[7] = strain STIB900, trypomastigote forms
[8] = strain NF54, erythrocytic stages, read-out: P. falc. IC50
[9] = L6 rat skeletal myoblasts, 72 h

SMILES | viability at 5 µg/mL [2] | viability at 50 µg/mL [2] | viability at 5 µg/mL [3] | viability at 50 µg/mL [3] | IC50 [4, 7] | SI (IC50 in L6 cells/IC50 T. b. rhodesiense) [4] | IC50 [1, 8] | SI (IC50 in L6 cells/IC50 P. falciparum) [1] | viability at 5 µg/mL (CCRF-CEM leukemia cells) | viability at 50 µg/mL (CCRF-CEM leukemia cells) | melting point | IC50 [5, 9] | viability at 5 µg/mL [6] | viability at 50 µg/mL [6] | viability at 5 µg/mL (U251 glioblastoma cells) | viability at 50 µg/mL (U251 glioblastoma cells) | also measured
CCN(CC)CCCC(C)Nc1ccnc2cc(Cl)ccc12 (centres unmarked) [Chl., Chloroquine, reference compound] |  |  |  |  |  |  |  |  |  |  |  |  |  |  |  |  | IC50 ([1]; NF54, read-out: P. falc. IC50): 0.002 µM
O=C1C=CC(O)(CCN2C(=O)c3ccccc3C2=O)C=C1 [Compound 13a, N-[2-(1-Hydroxy-4-oxocyclohexa-2,5-dien-1-yl)ethyl]phthalimide] | 43.7% | 1.93% | 55.4% | 1.76% | 1580 nM | 3.2 | 3.78 µM | 1.3 | 4.42% | 1.15% | 161 to 162 °C | 5.08 µM | 37.8% | 17.4% | 90.7% | 3.21% | 
O=C1C=CC(O)(CCN2C(=O)CCC2=O)C=C1 [Compound 13c, N-[2-(1-Hydroxy-4-oxocyclohexa-2,5-dien-1-yl)ethyl]succinimide] | 139% | 3.55% | 99% | 1.1% | 6930 nM |  | 8.63 µM |  | 79.1% | 2.15% |  | 9.9 µM | 79.8% | 5.72% | 93.3% | 0.59% | 
O=C1C=CC(O)(CCN2C(=O)c3cc(Cl)c(Cl)cc3C2=O)C=C1 [Compound 13d, 4,5-Dichloro-N-[2-(1-hydroxy-4-oxocyclohexa-2,5-dien-1-yl)ethyl]phthalimide] | 46.4% | 1.01% | 41.2% | 0.44% | 5710 nM | 1.1 | 3.24 µM | 1.9 | 13.8% | 3.33% | 213 to 214 °C | 6.28 µM | 28.6% | 24.8% | 72.1% | 1.79% | 
O=C1C=CC(O)(CCN2C(=O)C(Cl)=C(Cl)C2=O)C=C1 [Compound 13e, 3,4-Dichloro-N-[2-(1-hydroxy-4-oxocyclohexa-2,5-dien-1-yl)ethyl]maleimide] | 97% | 0.38% | 45.3% | -0.43% | 2260 nM | 4.5 | 74.4 µM | 0.1 | -2.6% | 0.59% | 168 to 169 °C | 10.3 µM | 81.3% | 9.53% | 95.6% | 1.95% | 
O=C1C=CC(O)(CCN2C(=O)C3CCCCC3C2=O)C=C1 (centres unmarked) [Compound 13h, N-[2-(1-Hydroxy-4-oxocyclohexa-2,5-dien-1-yl)ethyl]hexahydrophthalimide] | 57.6% | 0.76% | 44.3% | 0.49% | 1700 nM | 1.7 | 3.04 µM | 1.0 | 15.7% | 0.69% | 135 to 136 °C | 2.96 µM | 70.8% | 16.4% | 74.9% | 0.18% | 
O=C1C=CC(O)(CCN2C(=O)C3CCCCC3C2O)C=C1 (centres unmarked) [Compound 15, 3-Hydroxy-N-[2-(1-hydroxy-4-oxocyclohexa-2,5-dien-1-yl)ethyl]octahydroisoindole-1-one] | 135% | 4.47% | 111% | 1.44% | 1520 nM | 8.3 | 6.18 µM | 2.0 | 42.4% | 0.57% | 127 to 128 °C | 12.6 µM | 105% | 6.05% | 97.6% | 2.24% | 
Nc1nc(N)nc(Nc2ccc([As]3SCC(CO)S3)cc2)n1 (centres unmarked) [Mel., melarsoprol, reference compound] |  |  |  |  |  |  |  |  |  |  |  |  |  |  |  |  | IC50 [4]: 4 nM
COc1cc([C@@H]2c3cc4c(cc3[C@H](O)[C@H]3COC(=O)[C@H]23)OCO4)cc(OC)c1OC [Pod., podophyllotoxin, reference compound] |  |  |  |  |  |  |  |  |  |  |  |  |  |  |  |  | IC50 ([5]; Rattus norvegicus, L6, 72 h): 0.007 µM
CC[C@]1(O)C[C@@H]2CN(CCc3c([nH]c4ccccc34)[C@@](C(=O)OC)(c3cc4c(cc3OC)N(C)[C@H]3[C@@](O)(C(=O)OC)[C@H](OC(C)=O)[C@]5(CC)C=CCN6CC[C@]43[C@@H]65)C2)C1 [VBN, Vinblastine, reference compound] |  |  |  |  |  |  |  |  |  |  |  |  |  |  |  |  | viability at 0.01 µg/mL ([2]; MRC-5, 0.01 µg/mL, positive control): 63.8 ± 5.29%; viability at 0.01 µg/mL ([3]; HCT 116, 0.01 µg/mL, positive control): 39 ± 5.1%; viability at 0.01 µg/mL (CCRF-CEM leukemia cells; 0.01 µg/mL, positive control): 23.6 ± 7.62%; viability at 0.01 µg/mL ([6]; MDA-MB-231, 0.01 µg/mL, positive control): 42 ± 7.97%; viability at 0.01 µg/mL (U251 glioblastoma cells; U251, 0.01 µg/mL, positive control): 45.3 ± 3.81%
